Series [1] in a line: Stabilisation of polyethylene in permanent contact with water (extraction test, oxidation induction time). The following applies: 0.05% compound (302) with 0.10% Irganox 1010, 0.05% Irgafos, 0.10% calcium stearate in PE-HD; deionised water, 50 days at 80° C. The method, then: Stabilisation of polyethylene which is in permanent contact with water.
0.10% by weight of calcium stearate and a stabilizer mixture comprising 0.10% by weight of Irganox®1010 (pentaerythritol tetrakis[3-(3,5-di-tert-butyl-4-hydroxyphenyl)propionate]), 0.05% by weight of Irgafos®68 (tris(2,4-di-tert-butylphenyl)phosphite) and 0.05% by weight of compound (302) (Table 3) is added dry to a polyethylene polymer (Hostalene® CRP 100; PE-HD) taken direct from a reactor and are incorporated therein in a Pappenmaier mixer (type 20) within 2 minutes.
In an extruder, of Schwabenthan, the stabilized polyethylene is homogenised and processed to granulate. For the extraction tests in water, 200 mm by 150 mm by 2 mm test plates are pressed from the granulate of the individual formulations using a table press. To ease the demoulding of the test plates, the pressing process is carried out between two aluminium foils. […]
The test plates are subjected to the above test conditions for 50 days at 80° C. Upon termination of the extraction test, the residual stabilizer content and the oxidation induction time of the test plates are determined.
The residual content of sterically hindered phenol, Irganox®1010, is determined using an internal standard in an HPLC appliance of the Spectra Physics SP 8800 type, equipped with autosampler and UV/VIS detector of the Spectra 200 type. […]

The values below come from US6586606B2, “Process for the preparation of 3-aryl-benzofuran-2-ones” (Ciba Specialty Chemicals Corporation, priority 2000, dated 2003).

The term melting point denotes the temperature, or range, at which the solid turns liquid.

Turning to `COc1ccc(-c2c(N)oc3c(C(C)(C)C)cc(C(C)(C)C)cc23)cc1OC` [(303), 2-amino-5,7-di-tert-butyl-3-(3,4-dimethoxyphenyl)-benzofurane], the melting point lay in the range of 172 to 174 °C. Compound `Cc1ccc(-c2c(N)oc3c(C(C)(C)C)cc(C(C)(C)C)cc23)cc1C` [Compound (302), 2-amino-5,7-di-tert-butyl-3-(3,4-dimethylphenyl)-benzofurane] returned a melting point of 128 to 130 °C. The “stability of polyolefins in permanent contact with extracting media” value in series [1] is recorded as “improved”.

For the compound `CC(C)(C)c1cc(C(C)(C)C)c2oc(N)c(-c3ccccc3)c2c1` [Compound (301), 2-amino-3-phenyl-5,7-di-tert-butyl-benzofurane], the melting point was in the range of 174 to 178 °C. `CC(C)(C)c1cc2c(c(C(C)(C)C)c1)OC(=O)C2c1ccccc1` (centres unmarked) [(101), 5,7-di-tert-butyl-3-phenyl-3H-benzofuran-2-one] registered a melting point of 116 to 119 °C.
